Entries after “also recorded” stand apart in the source; their conditions may differ. Where a SMILES comes first, the peptide text is derived from it. Primed or numbered codes have the meaning given here. The star is where a group is joined. Adapalene = Adapaleneyl (acyl group from adapalene), COc1ccc(-c2ccc3cc(C(=O)*)ccc3c2)cc1C12CC3CC(CC(C3)C1)C2; Propyl(2R-PamO,3-PamO) = CCCCCCCCCCCCCCCC(=O)OC[C@H](C*)OC(=O)CCCCCCCCCCCCCCC; X2 = CCCCCCCCCCCCCCCC(=O)OCC(C*)OC(=O)CCCCCCCCCCCCCCC; X1 = CC(=O)NCCCOCCOCCOCCCNC(=O)COCC(=O)*; Palmitoyl = CCCCCCCCCCCCCCCC(=O)*; Ahx = NCCCCCC(=O)O; Dhc(Pam)2″ = lipid
Columns and labels:
TLR2 = TLR2 (Homo sapiens, UniProt O60603); assay: In vitro TLR2 functional bioassay (NF-κB luciferase, HEK293/hTLR2 cells); type: cell-based; set-up: host or cells: HEK293 stably transfected with pUNO-hTLR2, transiently transfected with the pNifty-Luc reporter; details: for fold of enhancement vs SAA at 1 μg/mL / fold of enhancement vs SAA at 10 μg/mL: compound at 1 μg/mL; for EC50: log(agonist) vs. normalized response, doses 0.01 ng/mL to 1 μg/mL, read-out: EC50; for TLR2 Agonist Activity: screened at 1 μg/mL
From the text: In Vitro TLR2 Functional Bioassay The in vitro TLR2 functional bioassay was developed and optimized for use in screening soluble compound libraries to identify both TLR2 agonists and antagonists. In this study, the TLR2 functional bioassay was used as a fast high throughput screening to identify TLR2 agonist ligands by measuring the inducing activity of NF-κB. HEK293/hTLR2 cells, highly overexpressing human TLR2, were used along with the parental HEK293, cells as a negative control. Cells were seeded at a density of 40,000 per well using a WellMate® Microplate dispenser (Thermo Fischer Scientific/Matrix) in black 96-well plates with opaque white wells (Perkin Elmer Wallac, Waltham, Mass.) and then incubated at 37° C. On day 2, the cells were transiently transfected with pNifty-Luc (InvivoGen), an NF-κB inducible reporter plasmid expressing the luciferase reporter gene (Zuany-Amorim, C., J., et al. Nat Rev Drug Discov, 2002. 1(10):797-807), using an optimized 4:1 ratio by volume of Fugene® HD Transfection Reagent (Roche Applied Science, Indianapolis, Ind.) to pNifty-Luc plasmid DNA (1 μg/mL). […] On day 4 after 24 hrs of peptide stimulation, luciferase induced activity by the induction of NF-κB was measured. Media was aspirated from the wells using an ELx405 Select plate washer (BioTek, Winooski, Vt.), 150 μg/mL D-luciferin (Gold Biotechnology, St. Louis, Mo.) was dispensed using the microplate dispensor; the plates were incubated at 37° C. for 5 min. The luminescence intensity was measured using the standard luminescence protocol on a Victor™ X4 plate-reader equipped with a plate stacker for readout of multiple plates at a time (PerkinElmer, Waltham, Mass.). For each in vitro TLR2 bioassay, at least three different experiments were performed in triplicate (n=3+). Data were analyzed with GraphPad Prism software and curves were generated with the appropriate nonlinear fit regression analysis.
The in vitro TLR2 functional bioassay was developed and optimized for use in high-throughput screening of soluble compound libraries to identify both TLR2 agonists and antagonists. The bioassay measures the induction of NF-κB signaling via TLR2 in HEK-293/hTLR2 cells and parental HEK-293 cells as a negative control. Cells were seeded at a density of 40,000 per well using a WellMate Microplate dispenser (Thermo Fisher Scientific/Matrix) in black 96-well plates with opaque white wells (PerkinElmer, Waltham, Mass.) and then incubated at 37° C. On day 2, the cells were transiently transfected with pNifty-Luc (InvivoGen, San Diego, Calif.), an NF-κB inducible reporter plasmid expressing the luciferase reporter gene[28] using an optimized 4:1 ratio by volume of FugeneHD Transfection Reagent (Promega, Madison, Wis.) to pNifty-Luc plasmid DNA (1 μg/mL). […] […] On day 4 after 24 h of peptide stimulation, luciferase induced activity by the induction of NF-κB was measured. Media was aspirated from the wells using an ELx405 Select CW plate washer (BioTek, Winooski, Vt.), 150 μg/mL D-luciferin (Gold Biotechnology, St. Louis, Mo.) was dispensed using the microplate dispensor; the plates were incubated at 37° C. for 5 min. The luminescence intensity was measured using the standard luminescence protocol on a Victor X4 Multilabel plate reader equipped with a plate stacker for readout of multiple plates at a time (PerkinElmer, Waltham, Mass.). […] Data were analyzed with GraphPad Prism software and curves were generated with the appropriate nonlinear fit regression analysis.

[1] = tested on: Trp1455/9M-specific CD8 T cells; assay: In vivo cellular immune response assay (immune adjuvant); set-up: species or system B6 mice; details: for in vivo immune adjuvant activity (generation and persistence of antigen-specific CD8 T cells): compared with Pam2CSK4 and Pam3CSK4
Protocol: To assess the efficacy of T-02 as an immune adjuvant, mice were immunized i.v. with a mixture of 100 μg optimized Trp1455/9M peptide (Guevara-Patino, J. A., et al. J Clin Invest, 2006. 116(5):1382-90), 50 μg anti-CD40 mAb (Clone; FGk-45.5), and 50 μg TLR-2 peptide (T-02, Pam2CSK4, or Pam3CSK4). […] The response of tetramer+ CD8 T cells in the blood was measured on day 7, 21, and 34 by tetramer staining. For tetramer staining, peripheral blood was taken from the submandibular vein and treated briefly with ammonium chloride buffer to lyse red blood cells. Blood cells were stained with FITC-conjugated anti-MHC class II, PerCP Cy5.5-conjugated CD8a (both from eBioscience, San Diego, Calif.), and phycoerythrin-conjugated Trp1455/9M/H-2D^b tetramers (provided by the NIH tetramer Facility, Emory University, Atlanta Ga.) for 40 min in ice. Fluorescence was evaluated using a FACSCalibur™ flow cytometer (BD Biosciences) and analyzed using FlowJo software.
C57BL/6 (B6) mice 6-8 weeks old were purchased from Charles River (Wilmington, Mass.). To assess the efficacy of 10 as an immune adjuvant, B6 mice were immunized i.v. with a mixture (in a volume of 200 μl) of 100 μg optimized Trp1455/9M peptide,[10c] 50 μg anti-CD40 monoclonal antibody (Clone; FGk-45.5), and 50 μg TLR2 agonist (10, Pam2CSK4, or Pam3CSK4). […] The response of tetramer positive CD8 T cells in the blood was measured on day 7, 21 and 34 by tetramer staining. For tetramer staining, peripheral blood was taken from the submandibular vein and treated briefly with ammonium chloride buffer to lyse red blood cells. Blood cells were stained with FITC-conjugated anti-MHC class II, PerCP Cy5.5-conjugated CD8a, and phycoerythrin-conjugated Trp1455/9M/H-2D^b tetramers for 40 min in ice. Fluorescence was evaluated using a FACSCalibur flow cytometer (BD Biosciences) and analyzed using FlowJo software.

Chain of TLR2 (O60603 21-784): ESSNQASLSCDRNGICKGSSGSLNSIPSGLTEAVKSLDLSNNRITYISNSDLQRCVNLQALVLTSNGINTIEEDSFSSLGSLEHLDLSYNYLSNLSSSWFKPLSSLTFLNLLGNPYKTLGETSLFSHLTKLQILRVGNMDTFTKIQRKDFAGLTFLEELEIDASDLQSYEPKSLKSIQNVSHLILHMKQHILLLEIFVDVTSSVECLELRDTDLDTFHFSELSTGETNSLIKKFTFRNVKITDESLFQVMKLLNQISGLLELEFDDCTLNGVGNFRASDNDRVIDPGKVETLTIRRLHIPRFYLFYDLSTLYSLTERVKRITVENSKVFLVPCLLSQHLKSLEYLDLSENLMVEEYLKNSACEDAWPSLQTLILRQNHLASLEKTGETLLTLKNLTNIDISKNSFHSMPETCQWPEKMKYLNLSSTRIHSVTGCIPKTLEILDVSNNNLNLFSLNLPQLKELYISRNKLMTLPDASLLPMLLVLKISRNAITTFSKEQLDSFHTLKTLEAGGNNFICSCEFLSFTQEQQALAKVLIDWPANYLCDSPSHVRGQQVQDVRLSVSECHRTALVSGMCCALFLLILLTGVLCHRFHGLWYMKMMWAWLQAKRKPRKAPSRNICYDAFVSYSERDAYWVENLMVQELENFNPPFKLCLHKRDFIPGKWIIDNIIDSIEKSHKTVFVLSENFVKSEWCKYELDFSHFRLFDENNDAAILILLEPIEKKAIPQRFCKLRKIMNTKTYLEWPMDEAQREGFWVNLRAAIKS
Chain of TLR2 (Q9Y2C9 32-796 partner): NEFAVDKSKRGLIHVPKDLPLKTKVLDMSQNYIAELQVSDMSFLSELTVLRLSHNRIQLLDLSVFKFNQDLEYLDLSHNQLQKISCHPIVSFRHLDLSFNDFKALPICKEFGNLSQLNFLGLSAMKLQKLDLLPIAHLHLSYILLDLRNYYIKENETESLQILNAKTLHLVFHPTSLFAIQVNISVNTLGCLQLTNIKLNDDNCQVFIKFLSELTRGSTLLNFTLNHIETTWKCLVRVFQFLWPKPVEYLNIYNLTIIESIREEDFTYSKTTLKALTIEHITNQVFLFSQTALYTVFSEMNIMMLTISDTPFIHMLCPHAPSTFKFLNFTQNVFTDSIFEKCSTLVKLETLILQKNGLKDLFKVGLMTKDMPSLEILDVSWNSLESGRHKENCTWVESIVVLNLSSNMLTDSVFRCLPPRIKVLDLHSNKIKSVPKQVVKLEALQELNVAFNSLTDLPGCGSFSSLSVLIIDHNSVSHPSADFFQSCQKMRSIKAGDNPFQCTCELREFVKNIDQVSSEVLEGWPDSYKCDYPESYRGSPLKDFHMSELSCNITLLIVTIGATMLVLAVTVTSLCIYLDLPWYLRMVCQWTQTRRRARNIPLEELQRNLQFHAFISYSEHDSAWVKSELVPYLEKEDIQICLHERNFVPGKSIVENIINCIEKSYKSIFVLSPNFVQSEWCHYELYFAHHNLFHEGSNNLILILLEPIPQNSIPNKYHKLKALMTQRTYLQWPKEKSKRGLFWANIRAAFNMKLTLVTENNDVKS

Molecule: Trp1455/9M: Trp1455/9M (TAPDNLGYM), H2 Db-optimized peptide from mouse tyrosinase-related protein-1, epitope for CD8 T cells [reference compound]
- TLR2 agonist activity of vaccine peptide (TLR2): not a TLR2 agonist

Molecule: CCCCCCCCCCCCCCCC(=O)OC[C@H](CSC[C@H](NC(=O)COCC(=O)NCCCOCCOCCOCCCNC(C)=O)C(=O)NCC(=O)N[C@@H](CO)C(=O)N[C@@H](CCC(N)=O)C(=O)N[C@@H](CC(N)=O)C(=O)N[C@@H](CC(C)C)C(=O)N[C@@H](C)C(=O)N[C@@H](CO)C(=O)N[C@@H](CC(C)C)C(=O)N[C@@H](CCC(=O)O)C(=O)N[C@@H](CCC(=O)O)C(N)=O)OC(=O)CCCCCCCCCCCCCCC [Compound 9] (X1-C(Propyl(2R-PamO,3-PamO))GSQNLASLEE-NH2)
- fold of enhancement vs SAA at 1 μg/mL (TLR2): 13 fold
- fold of enhancement vs SAA at 10 μg/mL (TLR2): 4.8 fold
- EC50 (TLR2): 0.0784 µM

Molecule: Ac-Aha-Dhc(Pam)2-Gly-Asn-Asn-Asp-Glu-Ser-Asn-Ile-Ser-Phe-Lys-Glu-Lys-NH2 ({Ac-Ahx-Dhc(Pam)2″}-GNNDESNISFKEK-NH2) [Compound 4]
- TLR2 Agonist Activity (TLR2): Yes

Molecule: Pam-Dhc(Pam)2-Gly-Asn-Asn-Asp-Glu-Ser-Asn-Ile-Ser-Phe-Lys-Glu-Lys-NH2 ({Palmitoyl-Dhc(Pam)2″}-GNNDESNISFKEK-NH2) [Compound 1]
- TLR2 Agonist Activity (TLR2): Yes

Molecule: CCCCCCCCCCCCCCCC(=O)OC[C@H](CSC[C@H](NC(=O)COCC(=O)NCCCOCCOCCOCCCNC(C)=O)C(=O)NCC(=O)N[C@@H](CC(N)=O)C(=O)N[C@@H](CC(N)=O)C(=O)N[C@@H](CC(=O)O)C(=O)N[C@@H](CCC(=O)O)C(=O)N[C@@H](CO)C(=O)N[C@@H](CC(N)=O)C(=O)N[C@H](C(=O)N[C@@H](CO)C(=O)N[C@@H](Cc1ccccc1)C(=O)N[C@@H](CCCCN)C(=O)N[C@@H](CCC(=O)O)C(=O)N[C@@H](CCCCN)C(N)=O)[C@@H](C)CC)OC(=O)CCCCCCCCCCCCCCC [Compound 3] (X1-C(Propyl(2R-PamO,3-PamO))GNNDESNISFKEK-NH2)
- EC50 (TLR2): 0.0556 µM
- TLR2 Agonist Activity (TLR2): Yes

Molecule: Tretinoin-Dhc(Pam)2-Gly-Asn-Asn-Asp-Glu-Ser-Asn-Ile-Ser-Phe-Lys-Glu-Lys-NH2 [Compound 7]
- TLR2 Agonist Activity (TLR2): Yes

Molecule: CCCCCCCCCCCCCCCC(=O)OC[C@H](CSC[C@H](NC(=O)COCC(=O)NCCCOCCOCCOCCCNC(C)=O)C(=O)NCC(=O)NC(CO)C(=O)NCCCOCCOCCOCCCNC(=O)COCC(N)=O)OC(=O)CCCCCCCCCCCCCCC (stereo partly drawn) [Compound 10, Ac-PEGO-Dhc(Pam)2-Gly-Ser-PEGO-NH2]
- in vivo immune adjuvant activity (generation and persistence of antigen-specific CD8 T cells) [1]: stimulated the immune system by generation and persistence of antigen-specific CD8 T cells; also recorded: exhibited activity similar to the other known TLR2 agonists; also recorded: induced an in vivo immune response comparable to the currently available TLR2 synthetic agonists
- in vivo immune adjuvant activity (generation and persistence of antigen-specific CD8 T cells) ([1]; listed as T-02): exhibited similar in vivo activity comparable to the TLR-2 agonists, Pam2CSK4 and Pam3CSK4
- fluorescence of stained tetramer positive CD8 T cells ([1]; day 7): High fluorescence
- response rate of the tetramer positive CD8 T cells ([1]; day 7): 100%
- maximum amount of fluorescently stained tetramer positive CD8 T cells ([1]; day 7, peripheral blood, i.v. immunization, n=3): 49.6%
- tetramer positive CD8 T cells ([1]; day 21): 25.7%
- tetramer positive CD8 T cells ([1]; day 34): 12.7%
- fold of enhancement vs SAA at 1 μg/mL (TLR2): 14 fold
- fold of enhancement vs SAA at 10 μg/mL (TLR2): 5.2 fold

Molecule: Fluorescein-Dhc(Pam)2-Gly-Asn-Asn-Asp-Glu-Ser-Asn-Ile-Ser-Phe-Lys-Glu-Lys-NH2 ({Fluorescein-Dhc(Pam)2″}-GNNDESNISFKEK-NH2) [Compound 2]
- TLR2 Agonist Activity (TLR2): Yes

Molecule: Adapalene-Dhc(Pam)2-Gly-Asn-Asn-Asp-Glu-Ser-Asn-Ile-Ser-Phe-Lys-Glu-Lys-NH2 ({Adapalene-Dhc(Pam)2″}-GNNDESNISFKEK-NH2) [Compound 5]
- TLR2 Agonist Activity (TLR2): Yes

Molecule: CCCCCCCCCCCCCCCC(=O)OCC(CSCC(NC(=O)COCC(=O)NCCCOCCOCCOCCCNC(C)=O)C(=O)NC(CO)C(=O)NC(CCCNC(=N)N)C(=O)NC(Cc1ccccc1)C(=O)NC(CC(=O)O)C(=O)NC(CCC(=O)O)C(=O)NC(CC(=O)O)C(=O)NC(CC(=O)O)C(=O)NC(CC(C)C)C(=O)NC(CCC(=O)O)C(N)=O)OC(=O)CCCCCCCCCCCCCCC (centres unmarked) [Compound 8] (X1-C(X2)SRFDEDDLE-NH2; configuration not given here)
- fold of enhancement vs SAA at 1 μg/mL (TLR2): 11 fold
- fold of enhancement vs SAA at 10 μg/mL (TLR2): 4.2 fold

Molecule: Ac-Aun(C11)-Dhc(Pam)2-Gly-Asn-Asn-Asp-Glu-Ser-Asn-Ile-Ser-Phe-Lys-Glu-Lys-NH2 ({Ac-Aun(C11)-Dhc(Pam)2″}-GNNDESNISFKEK-NH2) [Compound 6]
- TLR2 Agonist Activity (TLR2): Yes

From patent publication US11458212B2, “Molecular imaging of cancer cells in vivo” (H. Lee Moffitt Cancer Center and Research Institute, Inc., priority 2011, dated 2022)
